Test results: article PMC5580309, “Molecular-scale features that govern the effects of O-glycosylation on a carbohydrate-binding module” (Chemical Science, 2015)
Bridge positions count the residues as written; N and C are the ends. Peptide text beside a SMILES is read from it. * marks the point of attachment. X2 = OC[C@H]1O[C@H](O[C@H]2[C@@H](O)[C@H](O)[C@@H](CO)O[C@@H]2*)[C@@H](O)[C@@H](O)[C@@H]1O; X3 = CC(=O)N[C@@H]1[C@@H](O)[C@H](O)[C@@H](CO)O[C@@H]1*; X6 = C[C@@H]1O[C@@H](*)[C@@H](O)[C@H](O)[C@@H]1O

Target: T1, thermolysin (Bacillus thermoproteolyticus, UniProt P00800)
T1 sequence (P00800 233-548): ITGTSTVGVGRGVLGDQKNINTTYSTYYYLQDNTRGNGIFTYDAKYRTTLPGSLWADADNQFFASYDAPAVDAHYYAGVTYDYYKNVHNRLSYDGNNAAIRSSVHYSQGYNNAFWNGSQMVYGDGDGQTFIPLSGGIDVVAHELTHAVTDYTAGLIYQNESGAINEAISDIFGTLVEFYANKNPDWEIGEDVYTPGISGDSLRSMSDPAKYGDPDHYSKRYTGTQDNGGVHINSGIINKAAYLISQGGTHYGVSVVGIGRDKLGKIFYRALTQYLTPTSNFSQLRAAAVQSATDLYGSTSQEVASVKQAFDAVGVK
Test: Proteolytic stability: half-life to thermolysin degradation
Type: in vitro ADME
Conditions: for half-life: thermolysin (isolated protease), thermolysin degradation, mean of three trials ± SD, procedures as described previously (ESI ref 18); for Change in Half-Life to Thermolysin Degradation: glyco-variant minus its corresponding unglycosylated CBM (e.g. 2-1), *** not used in the correlation plot
Protocol: All error bars reported are standard deviations of data achieved from three separate trials.
cellulose that were determined in accordance with our procedures as described previously 18.
The results are presented as mean of three trials ± SD. *Denotes an averaged value of four trials

CC[C@H](C)[C@@H]1NC(=O)CNC(=O)CNC(=O)[C@@H](NC(=O)[C@H](CCC(N)=O)NC(=O)CNC(=O)[C@H](Cc2ccc(O)cc2)NC(=O)[C@H](Cc2c[nH]cn2)NC(=O)[C@H](CS[C@H]2O[C@H](CO)[C@@H](O)[C@H](O)[C@@H]2O[C@H]2O[C@H](CO)[C@@H](O)[C@H](O)[C@@H]2O)NC(=O)[C@H](CCC(N)=O)NC(=O)[C@@H](N)[C@@H](C)O)CSSC[C@@H]2NC(=O)[C@H]([C@@H](C)O)NC(=O)[C@H]([C@@H](C)O)NC(=O)CNC(=O)[C@H](CO)NC(=O)[C@H](C)NC(=O)[C@H](CSSC[C@@H](C(=O)N[C@@H](CC(C)C)C(=O)O)NC(=O)[C@H](CCC(N)=O)NC(=O)[C@H](CO)NC(=O)[C@H](Cc3ccc(O)cc3)NC(=O)[C@H](Cc3ccc(O)cc3)NC(=O)[C@@H]3CCCN3C(=O)[C@H](CC(N)=O)NC(=O)[C@H](CC(C)C)NC(=O)[C@H](C(C)C)NC(=O)[C@H](CCC(N)=O)NC2=O)NC(=O)[C@H](C(C)C)NC(=O)[C@H]([C@@H](C)O)NC(=O)[C@@H]2CCCN2C(=O)CNC(=O)[C@H](CO)NC(=O)[C@H](Cc2ccc(O)cc2)NC(=O)CNC1=O [CBM variant 34] (H-TQC(X2)HYGQCGGIGYSGPTVCASGTTCQVLNPYYSQCL-OH; disulfide 8-25, 19-35)
half-life: 10.8 ± 1.2 min

CC[C@H](C)[C@@H]1NC(=O)CNC(=O)CNC(=O)[C@@H](NC(=O)[C@H](CCC(N)=O)NC(=O)CNC(=O)[C@H](Cc2ccc(O)cc2)NC(=O)[C@H](Cc2c[nH]cn2)NC(=O)[C@@H](NC(=O)[C@H](CCC(N)=O)NC(=O)[C@@H](N)[C@@H](C)O)[C@@H](C)O)CSSC[C@@H]2NC(=O)[C@H]([C@@H](C)O)NC(=O)[C@H]([C@@H](C)O)NC(=O)CNC(=O)[C@H](CO)NC(=O)[C@H](C)NC(=O)[C@H](CSSC[C@@H](C(=O)N[C@@H](CC(C)C)C(=O)O)NC(=O)[C@H](CCC(N)=O)NC(=O)[C@H](CO)NC(=O)[C@H](Cc3ccc(O)cc3)NC(=O)[C@H](Cc3ccc(O)cc3)NC(=O)[C@@H]3CCCN3C(=O)[C@H](CC(N)=O)NC(=O)[C@H](CC(C)C)NC(=O)[C@H](C(C)C)NC(=O)[C@H](CCC(N)=O)NC2=O)NC(=O)[C@H](C(C)C)NC(=O)[C@H]([C@@H](C)O)NC(=O)[C@@H]2CCCN2C(=O)CNC(=O)[C@H](CO)NC(=O)[C@H](Cc2ccc(O)cc2)NC(=O)CNC1=O [CBM variant 12] (H-TQTHYGQCGGIGYSGPTVCASGTTCQVLNPYYSQCL-OH; disulfide 8-25, 19-35)
half-life: 21.6 ± 1.2 min

CC[C@H](C)[C@@H]1NC(=O)CNC(=O)CNC(=O)[C@@H](NC(=O)[C@H](CCC(N)=O)NC(=O)CNC(=O)[C@H](Cc2ccc(O)cc2)NC(=O)[C@H](Cc2c[nH]cn2)NC(=O)[C@@H](NC(=O)[C@H](CCC(N)=O)NC(=O)[C@@H](N)[C@@H](C)O)[C@@H](C)O[C@H]2O[C@H](CO)[C@@H](O)[C@H](O)[C@@H]2O[C@H]2O[C@H](CO)[C@@H](O)[C@H](O)[C@@H]2O)CSSC[C@@H]2NC(=O)[C@H]([C@@H](C)O)NC(=O)[C@H]([C@@H](C)O)NC(=O)CNC(=O)[C@H](CO)NC(=O)[C@H](C)NC(=O)[C@H](CSSC[C@@H](C(=O)N[C@@H](CC(C)C)C(=O)O)NC(=O)[C@H](CCC(N)=O)NC(=O)[C@H](CO)NC(=O)[C@H](Cc3ccc(O)cc3)NC(=O)[C@H](Cc3ccc(O)cc3)NC(=O)[C@@H]3CCCN3C(=O)[C@H](CC(N)=O)NC(=O)[C@H](CC(C)C)NC(=O)[C@H](C(C)C)NC(=O)[C@H](CCC(N)=O)NC2=O)NC(=O)[C@H](C(C)C)NC(=O)[C@H]([C@@H](C)O)NC(=O)[C@@H]2CCCN2C(=O)CNC(=O)[C@H](CO)NC(=O)[C@H](Cc2ccc(O)cc2)NC(=O)CNC1=O [CBM variant 33] (H-TQT(X2)HYGQCGGIGYSGPTVCASGTTCQVLNPYYSQCL-OH; disulfide 8-25, 19-35)
Change in Half-Life to Thermolysin Degradation: 72 min
half-life: 93.6 ± 24 min

CC[C@H](C)[C@@H]1NC(=O)CNC(=O)CNC(=O)[C@@H](NC(=O)[C@H](CCC(N)=O)NC(=O)CNC(=O)[C@H](Cc2ccc(O)cc2)NC(=O)[C@H](Cc2c[nH]cn2)NC(=O)[C@H](CO[C@@H]2O[C@@H](C)[C@@H](O)[C@@H](O)[C@@H]2O)NC(=O)[C@H](CCC(N)=O)NC(=O)[C@@H](N)[C@@H](C)O)CSSC[C@@H]2NC(=O)[C@H]([C@@H](C)O)NC(=O)[C@H]([C@@H](C)O)NC(=O)CNC(=O)[C@H](CO)NC(=O)[C@H](C)NC(=O)[C@H](CSSC[C@@H](C(=O)N[C@@H](CC(C)C)C(=O)O)NC(=O)[C@H](CCC(N)=O)NC(=O)[C@H](CO)NC(=O)[C@H](Cc3ccc(O)cc3)NC(=O)[C@H](Cc3ccc(O)cc3)NC(=O)[C@@H]3CCCN3C(=O)[C@H](CC(N)=O)NC(=O)[C@H](CC(C)C)NC(=O)[C@H](C(C)C)NC(=O)[C@H](CCC(N)=O)NC2=O)NC(=O)[C@H](C(C)C)NC(=O)[C@H]([C@@H](C)O)NC(=O)[C@@H]2CCCN2C(=O)CNC(=O)[C@H](CO)NC(=O)[C@H](Cc2ccc(O)cc2)NC(=O)CNC1=O [CBM variant 28] (H-TQS(X6)HYGQCGGIGYSGPTVCASGTTCQVLNPYYSQCL-OH; disulfide 8-25, 19-35)
Change in Half-Life to Thermolysin Degradation: 23.4 min
half-life: 37.2 ± 6.6 min

CC[C@H](C)[C@@H]1NC(=O)CNC(=O)CNC(=O)[C@@H](NC(=O)[C@H](CCC(N)=O)NC(=O)CNC(=O)[C@H](Cc2ccc(O)cc2)NC(=O)[C@H](Cc2c[nH]cn2)NC(=O)[C@H](CO)NC(=O)[C@H](CCC(N)=O)NC(=O)[C@H](C)N)CSSC[C@@H]2NC(=O)[C@H]([C@@H](C)O)NC(=O)[C@H]([C@@H](C)O)NC(=O)CNC(=O)[C@H](CO)NC(=O)[C@H](C)NC(=O)[C@H](CSSC[C@@H](C(=O)N[C@@H](CC(C)C)C(=O)O)NC(=O)[C@H](CCC(N)=O)NC(=O)[C@H](CO)NC(=O)[C@H](Cc3ccc(O)cc3)NC(=O)[C@H](Cc3ccc(O)cc3)NC(=O)[C@@H]3CCCN3C(=O)[C@H](CC(N)=O)NC(=O)[C@H](CC(C)C)NC(=O)[C@H](C(C)C)NC(=O)[C@H](CCC(N)=O)NC2=O)NC(=O)[C@H](C(C)C)NC(=O)[C@H]([C@@H](C)O)NC(=O)[C@@H]2CCCN2C(=O)CNC(=O)[C@H](CO)NC(=O)[C@H](Cc2ccc(O)cc2)NC(=O)CNC1=O [CBM variant 4] (H-AQSHYGQCGGIGYSGPTVCASGTTCQVLNPYYSQCL-OH; disulfide 8-25, 19-35)
half-life: 9.6 ± 1.2 min

CC[C@H](C)[C@@H]1NC(=O)CNC(=O)CNC(=O)[C@@H](NC(=O)[C@H](CCC(N)=O)NC(=O)CNC(=O)[C@H](Cc2ccc(O)cc2)NC(=O)[C@H](Cc2c[nH]cn2)NC(=O)[C@H](CO[C@H]2O[C@H](CO)[C@@H](O)[C@H](O)[C@@H]2O[C@H]2O[C@H](CO)[C@@H](O)[C@H](O)[C@@H]2O)NC(=O)[C@H](CCC(N)=O)NC(=O)[C@@H](N)[C@@H](C)O)CSSC[C@@H]2NC(=O)[C@H]([C@@H](C)O)NC(=O)[C@H]([C@@H](C)O)NC(=O)CNC(=O)[C@H](CO)NC(=O)[C@H](C)NC(=O)[C@H](CSSC[C@@H](C(=O)N[C@@H](CC(C)C)C(=O)O)NC(=O)[C@H](CCC(N)=O)NC(=O)[C@H](CO)NC(=O)[C@H](Cc3ccc(O)cc3)NC(=O)[C@H](Cc3ccc(O)cc3)NC(=O)[C@@H]3CCCN3C(=O)[C@H](CC(N)=O)NC(=O)[C@H](CC(C)C)NC(=O)[C@H](C(C)C)NC(=O)[C@H](CCC(N)=O)NC2=O)NC(=O)[C@H](C(C)C)NC(=O)[C@H]([C@@H](C)O)NC(=O)[C@@H]2CCCN2C(=O)CNC(=O)[C@H](CO)NC(=O)[C@H](Cc2ccc(O)cc2)NC(=O)CNC1=O [CBM variant 3] (H-TQS(X2)HYGQCGGIGYSGPTVCASGTTCQVLNPYYSQCL-OH; disulfide 8-25, 19-35)
Change in Half-Life to Thermolysin Degradation: 114 min
half-life: 128 ± 3.6 min

CC[C@H](C)[C@@H]1NC(=O)CNC(=O)CNC(=O)[C@@H](NC(=O)[C@H](CCC(N)=O)NC(=O)CNC(=O)[C@H](Cc2ccc(O)cc2)NC(=O)[C@H](Cc2c[nH]cn2)NC(=O)[C@H](CO[C@H]2O[C@H](CO)[C@@H](O)[C@H](O)[C@H]2NC(C)=O)NC(=O)[C@H](CCC(N)=O)NC(=O)[C@@H](N)[C@@H](C)O)CSSC[C@@H]2NC(=O)[C@H]([C@@H](C)O)NC(=O)[C@H]([C@@H](C)O)NC(=O)CNC(=O)[C@H](CO)NC(=O)[C@H](C)NC(=O)[C@H](CSSC[C@@H](C(=O)N[C@@H](CC(C)C)C(=O)O)NC(=O)[C@H](CCC(N)=O)NC(=O)[C@H](CO)NC(=O)[C@H](Cc3ccc(O)cc3)NC(=O)[C@H](Cc3ccc(O)cc3)NC(=O)[C@@H]3CCCN3C(=O)[C@H](CC(N)=O)NC(=O)[C@H](CC(C)C)NC(=O)[C@H](C(C)C)NC(=O)[C@H](CCC(N)=O)NC2=O)NC(=O)[C@H](C(C)C)NC(=O)[C@H]([C@@H](C)O)NC(=O)[C@@H]2CCCN2C(=O)CNC(=O)[C@H](CO)NC(=O)[C@H](Cc2ccc(O)cc2)NC(=O)CNC1=O [CBM variant 22] (H-TQS(X3)HYGQCGGIGYSGPTVCASGTTCQVLNPYYSQCL-OH; disulfide 8-25, 19-35)
Change in Half-Life to Thermolysin Degradation: 10.2 min
half-life: 24 ± 0.6 min
